In ChEMBL document CHEMBL1135130, “Substituted tetrahydrofuroyl-1-phenylalanine derivatives as potent and specific VLA-4 antagonists” (Bioorg Med Chem Lett, 2002):
pIC50: −log10 of the molar value.

How the values were obtained:
[1] = molecular target: Integrin alpha-4/beta-7 (Homo sapiens) (UniProt P13612+P26010); test: Selectivity for alpha4-beta7 to that of alpha4-beta1; assay type: protein-complex assay
Integrin alpha-4/beta-7 [2] = molecular target: T1, Integrin alpha-4/beta-7 (Homo sapiens, UniProt P13612+P26010); test: Inhibition of alpha4-beta7 antigen with MAdCAM immunoglobulin; assay type: protein-complex assay
T1 sequence (P13612 whole entry): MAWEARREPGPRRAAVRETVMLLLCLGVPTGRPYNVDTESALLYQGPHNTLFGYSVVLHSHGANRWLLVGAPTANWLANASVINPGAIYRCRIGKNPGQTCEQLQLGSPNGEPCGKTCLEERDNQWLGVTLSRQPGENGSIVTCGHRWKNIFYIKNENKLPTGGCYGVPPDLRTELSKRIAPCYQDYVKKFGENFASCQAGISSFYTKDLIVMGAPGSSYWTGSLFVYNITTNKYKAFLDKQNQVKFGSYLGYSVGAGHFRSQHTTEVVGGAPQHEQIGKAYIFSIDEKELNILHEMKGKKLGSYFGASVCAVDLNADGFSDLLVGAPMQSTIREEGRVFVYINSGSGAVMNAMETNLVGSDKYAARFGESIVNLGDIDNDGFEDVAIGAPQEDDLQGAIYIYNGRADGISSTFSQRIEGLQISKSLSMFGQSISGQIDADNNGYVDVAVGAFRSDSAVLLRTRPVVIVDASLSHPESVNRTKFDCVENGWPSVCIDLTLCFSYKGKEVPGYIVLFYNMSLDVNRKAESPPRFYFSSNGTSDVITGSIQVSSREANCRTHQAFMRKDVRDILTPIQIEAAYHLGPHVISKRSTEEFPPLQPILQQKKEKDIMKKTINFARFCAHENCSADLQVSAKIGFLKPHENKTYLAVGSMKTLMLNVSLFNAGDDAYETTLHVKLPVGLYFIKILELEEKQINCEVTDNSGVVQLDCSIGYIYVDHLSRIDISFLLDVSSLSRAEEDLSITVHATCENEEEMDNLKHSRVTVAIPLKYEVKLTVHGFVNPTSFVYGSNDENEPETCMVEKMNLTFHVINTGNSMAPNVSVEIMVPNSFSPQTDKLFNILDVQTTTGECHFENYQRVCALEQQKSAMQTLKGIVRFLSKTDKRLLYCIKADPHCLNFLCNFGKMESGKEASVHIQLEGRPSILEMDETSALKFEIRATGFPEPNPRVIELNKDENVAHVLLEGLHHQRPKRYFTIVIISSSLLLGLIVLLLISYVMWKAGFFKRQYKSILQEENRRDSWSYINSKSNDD
T1 sequence (P26010 whole entry): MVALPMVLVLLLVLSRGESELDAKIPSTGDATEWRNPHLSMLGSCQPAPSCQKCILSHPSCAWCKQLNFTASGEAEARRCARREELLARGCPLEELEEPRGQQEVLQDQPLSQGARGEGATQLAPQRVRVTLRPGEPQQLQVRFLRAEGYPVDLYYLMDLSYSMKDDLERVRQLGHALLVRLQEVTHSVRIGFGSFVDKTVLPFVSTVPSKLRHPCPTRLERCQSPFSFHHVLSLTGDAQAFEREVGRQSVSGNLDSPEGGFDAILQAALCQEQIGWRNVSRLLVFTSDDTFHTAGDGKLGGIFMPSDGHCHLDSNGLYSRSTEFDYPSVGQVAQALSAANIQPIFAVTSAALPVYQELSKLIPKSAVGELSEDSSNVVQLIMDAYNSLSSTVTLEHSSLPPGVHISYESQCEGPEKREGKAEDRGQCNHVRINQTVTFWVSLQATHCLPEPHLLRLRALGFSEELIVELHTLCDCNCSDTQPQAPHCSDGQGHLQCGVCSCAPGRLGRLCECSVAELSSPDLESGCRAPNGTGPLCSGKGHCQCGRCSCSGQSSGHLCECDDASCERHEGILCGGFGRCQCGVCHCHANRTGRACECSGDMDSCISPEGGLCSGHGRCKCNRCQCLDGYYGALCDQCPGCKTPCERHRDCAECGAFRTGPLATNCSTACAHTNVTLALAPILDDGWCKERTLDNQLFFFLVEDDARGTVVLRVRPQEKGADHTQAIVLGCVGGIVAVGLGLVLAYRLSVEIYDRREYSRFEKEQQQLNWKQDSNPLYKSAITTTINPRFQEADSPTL

Integrin alpha-4/beta-1 [3] = molecular target: T2, Integrin alpha-4/beta-1 (Homo sapiens, UniProt P05556+P13612); test: Inhibition of alpha4-beta1 (very late) antigen binding with VCAM-1 immunoglobulin plus 5% human plasma; assay type: cell-free
T2 sequence (P05556 whole entry, one chain of several): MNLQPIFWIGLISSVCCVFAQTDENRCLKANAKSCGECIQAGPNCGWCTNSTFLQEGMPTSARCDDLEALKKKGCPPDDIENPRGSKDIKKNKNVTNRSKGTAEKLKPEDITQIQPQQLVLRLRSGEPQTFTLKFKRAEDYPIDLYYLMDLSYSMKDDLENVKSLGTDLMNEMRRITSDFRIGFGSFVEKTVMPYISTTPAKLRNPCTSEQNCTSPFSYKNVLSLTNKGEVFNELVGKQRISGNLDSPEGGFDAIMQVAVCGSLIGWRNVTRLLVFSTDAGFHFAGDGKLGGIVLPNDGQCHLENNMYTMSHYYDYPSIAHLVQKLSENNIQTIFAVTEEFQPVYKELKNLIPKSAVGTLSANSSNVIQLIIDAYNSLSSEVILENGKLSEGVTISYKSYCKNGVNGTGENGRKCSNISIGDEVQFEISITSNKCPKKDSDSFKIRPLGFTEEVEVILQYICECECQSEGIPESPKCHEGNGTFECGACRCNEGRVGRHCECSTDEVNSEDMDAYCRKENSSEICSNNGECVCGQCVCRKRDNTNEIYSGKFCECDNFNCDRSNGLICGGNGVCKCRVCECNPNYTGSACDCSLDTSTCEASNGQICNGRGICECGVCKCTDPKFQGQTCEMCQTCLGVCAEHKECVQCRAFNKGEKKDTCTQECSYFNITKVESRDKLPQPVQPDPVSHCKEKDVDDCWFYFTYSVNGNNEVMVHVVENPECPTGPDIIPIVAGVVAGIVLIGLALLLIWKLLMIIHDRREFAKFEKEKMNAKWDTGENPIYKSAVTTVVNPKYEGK

[4] = Plasma clearance determined; assay type: ADME, organism-based; settings: read-out: Clp
Integrin alpha-4/beta-1 [5] = molecular target: T2, Integrin alpha-4/beta-1; test: Inhibition of alpha4-beta1 (very late) antigen binding with VCAM-1 immunoglobulin; assay type: protein-complex assay
[6] = Oral bioavailability; assay type: ADME, organism-based; settings: eutheria, in vivo
[7] = Selectivity for alpha4-beta7 over alpha4-beta1 integrins
Integrin alpha-4/beta-7 [8] = molecular target: T1, Integrin alpha-4/beta-7; test: Inhibition of alpha4-beta7 integrin binding to MAdCAM immunoglobulin; assay type: protein-complex assay

SMILES | Ratio [1] | pIC50 (Integrin alpha-4/beta-7 [2]) | pIC50 (Integrin alpha-4/beta-1 [3]) | clearance [4] [mL/min/kg] | pIC50 (Integrin alpha-4/beta-1 [5]) | bioavailability [6] [%] | Ratio [7] | pIC50 (Integrin alpha-4/beta-7 [8])
COc1cccc(OC)c1-c1ccc(C[C@H](NC(=O)[C@@]2(C)CCCO2)C(=O)O)cc1 | 21 | 8.15 | 8.44 | 2.9 | 9.47 | 51 |  | 
COCCC[C@]1(C(=O)N[C@@H](Cc2ccc(-c3c(OC)cccc3OC)cc2)C(=O)O)CCCO1 | 22 | 8.11 | 9.21 | 81.8 | 9.46 | 1.9 |  | 
COc1ccccc1-c1ccc(C[C@H](NC(=O)[C@@]2(CC(=O)N3CCOCC3)CCCO2)C(=O)O)cc1 |  |  |  |  | 7.64 |  | 11 | 7.96
